Experimental data from patent US10827753B2, “Compositions and methods for controlling nematodes” (Monsanto Technology LLC, priority 2007, dated 2020).
Marks after values point to notes of the source that are not given here.

Key:
[1] = tested on: Heterodera glycines (SCN); assay: Seed treatment test of soybean cyst nematode on soybean plants; format: in vivo; conditions: test a
Procedure: For a given concentration the chemical is dissolved in 500 ul of acetone and one gram of cucumber seed (RKN test) or soybean seed (SCN test) is added (e.g., 20 mg active ingredient in 500 ul acetone plus 1 gram of seed). The seed solutions are agitated until all seeds were thoroughly covered with the chemical solution. The acetone is then allowed to evaporate by air drying the seeds. The seeds are planted in 2-inch pots containing sandy soil and then the pots are inoculated with 1000 Meloidogyne incognita (RKN) or 1000 Heterodera glycines (SCN) eggs per pot three days after planting. Plants are rated for galling 14 days after egg inoculation for RKN or 28 days after egg inoculation for SCN.

[2] = tested on: mice; conditions: cited from earlier work
[3] = tested on: Meloidogyne incognita; assay: M. incognita miniaturized greenhouse assay on cucumber seedlings (root galling); format: in vivo; set-up: key to 1 ppm gall ratings / 1 ppm gall rating: mean of 3 gall ratings: 0=0-5%, 1=6-20%, 2=21-50%, 3=51-100% root galled; conditions: for 8 ppm gall ratings: average of triplicate gall rating, scale 0-3 (% root mass galled)
In short: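 Compound in acetone/Triton X100 stock (5 mg/mL) diluted into water with 0.015% Triton X100 and applied to sand-planted sprouted cucumber seedlings; inoculated with 500 M. incognita eggs two days after planting. Roots harvested 10–12 days later; galling scored 0–3 by % root mass galled, averaged over triplicates, plus visual root phytotoxicity rating.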

[4] = tested on: sting (Belonolaimus longicaudatus) nematodes; assay: Sting nematode bench top soil assay; format: in vivo
Procedure: Populations of sting (Belonolaimus longicaudatus) nematodes are maintained on St. Augustine turf grass on soil in 15-cm pots. At test initiation the turf is removed from the pots and the soil containing nematode eggs, juveniles, and adults is subdivided into pots each containing a volume of 125 cm^3′ The compounds to be tested are dissolved in 3 ml of acetone using 3, 6, or 15 mg to achieve equivalent surface area application rates of 2, 4, or 10 kg/ha, respectively. The 3 ml acetone stock solution is added to 30 ml of water, and 5 ml of that solution is used to drench each of 6 replicate test pots prepared as described above. The treated pots containing nematodes are incubated in the laboratory at ambient temperature of approximately 25° C. After 3 days the soil from each pot is washed onto a modified Baermann apparatus comprised of a screen supporting a layer of filter paper on which the soil sample is placed and set in a dish of water. The samples are then incubated at 25° C. for 24 hours to allow the live nematodes to migrate through the paper and screen and into a water reservoir to be collected for counting with a light microscope. Nematodes that have been killed or immobilized by the test compounds are not able to migrate into the reservoir.

[5] = tested on: CD-1/Swiss derived albino mice; format: in vivo; conditions: 500 mg/kg oral, three female mice, observed up to 14 days
Procedure: Acute oral toxicity testing was performed in mice in accordance with test method P203.UDP, as administered by Eurofins/Product Safety Laboratories (Dayton, N.J.). CD-1/Swiss derived albino mice were obtained and group housed in suspended solid bottom caging. The mice were fed rodent chow and filtered tap water was supplied ad libitum. Following acclimation to the laboratory setting, a group of animals was fasted overnight by removing food from the cages. After the fasting period, three female mice were selected based on vitality and initial body weights. The individual compound doses were calculated from these body weights.
The test substance was prepared as a 1% (50 mg/kg) or 5% (500 mg/kg) weight to weight (w/w) mixture in a 0.5% w/w solution of carboxymethylcellulose (CMC) in distilled water. A tissue homogenizer was used to create a homogeneous mixture. A dose of 50 or 500 mg/kg was administered to three healthy mice per dose level by oral intubation using a ball-tipped gavage needle attached to a syringe. After administration, the animals were returned to their cages, and feed was replaced immediately after dosing.
Body weights were recorded prior to initiation and on Days 7 and 14 or a soon as possible after death.

[6] = tested on: Meloidogyne incognita; assay: Fall nematicidal field testing on squash microplots; format: in vivo; conditions: for RG28 = % root galls at 28 days after treatment / RG43 = % root galls at 43 days after treatment: 2 kg ai/ha drench, squash
Description: The test site was located at 3511 Highway F in New Melle, Mo., Saint Charles county. The soil was a native prairie/pasture covering silty clay loam soil. Holes were dug using a Bobcat 763 skid loader with a 12-inch auger to a depth of 18 inches. Total volume of each hole was about 1.2 cubic feet. Six cubic yards of topsoil and 9 tons of river sand were purchased from Dardenne Farms Topsoil. Mixing to a ratio of 4 volumes sand to 1 volume soil was accomplished using a trailer-mounted 9 cubic foot concrete mixer. Holes were filled and then re-filled 5 days later after settling. The mixture was 92.5% sand, 2.5% silt, and 5% clay. Organic matter was 0.2% and pH was 6.8.
Treatments were arranged in a block design with the blocks laid out perpendicular to the primary slope and parallel to secondary slope. There are 7 inoculated controls and 5 non-inoculated controls and the distributions of disease severity appeared independent of location.
Application rates are expressed as kg of active material per hectare, and the mg per plot is based on the surface area of the bored and filled holes (0.000008559 Ha). The DC compounds were formulated immediately before application as follows: 1) the amount required to treat all six replicates was dissolved in 300 ml of acetone, 2) for each plot 50 ml of that solution was added to a graduated cylinder with 2 ml of 12.5% Triton X100 and the volume was raised to 500 ml with tap water. The resultant mix is the same as used in the standard greenhouse assays (10% acetone, 0.05%×100). The oxamyl treatments were prepared from Vydate 2 L formulated the same way. The 500 ml was placed in a watering can and the entire volume was evenly sprinkled over the surface of the plot. No runoff occurred and pooling, if any, was short lived. The final drench volume was 0.58 ml/cm^2, compared to 0.2 ml/cm^2 used in our greenhouse, however the microplots are much deeper so the drench volume applied per soil volume treated is roughly the same.
Meloidogyne incognita eggs were harvested over a two week period and stored at approximately 5° C. until needed. A stock of 5.6 million vermiform eggs was adjusted to 9000/ml in 620 ml. One day after treatment, two holes were made in each plot about 7 cm apart and equidistant from the squash plants. Five ml of egg suspension was pipetted into each hole, which was then sealed and the plot lightly watered. A total of 90,000 vermiform eggs were added to each plot.
The first root evaluation was at 28 DAT. The tops were cut off and weighed immediately in the field, and the roots were carefully dug out so as not to disturb the remaining plant.

[7] = tested on: root knot nematode (RKN); assay: RKN greenhouse soil assay on cucumber plants; format: in vivo, Meloidogyne incognita; conditions: 0 day treatment, test c
Description: Cucumber seeds are planted in a sandy soil mixture in two inch square plastic pots. When the cotyledons are fully opened and just as the first leaf begins to emerge, usually 7 days after planting, chemistry for the 7 day treatment is applied. One week later the chemistry for the 0 day treatment is applied. Separate plants are used for each application. The plants are generally in the 1-2 leaf stage now. At least four hours after the chemistry application the pots are inoculated with root knot nematode (RKN) eggs. Plants are rated for galling 14 days after the egg inoculation.
One milligram of chemistry per four pots is equal to one kilogram per hectare of chemical. A standard test uses four replications. For rates above 2 kg/ha, the desired amount of chemical is weighed into a 30 ml vial (example: 8 kg/ha rate=8 mg chemical in 30 ml vial). The chemical is dissolved in 2 ml of appropriate solvent, generally acetone. For rates below 2 kg/ha, 2 milligrams of chemistry is weighed into the vial and dissolved in 2 ml of the solvent. The appropriate amount of chemical concentrate is then pipetted into a separate 30 ml vial and solvent is added to bring the volume to 2 ml (example 0.5 kg/ha=0.5 ml of concentrate+1.5 ml solvent). Each dissolved concentrate is then brought to a total of 20 milliliters using 0.05% Triton X 100 surfactant solution.
Pots to be treated are moist but not saturated. To each of four pots, five milliliters of the appropriate chemical solution is pipetted to the media surface making sure to avoid contact with the base of the plant. Immediately following chemical application, using a mist nozzle, the pot surface is wetted sufficiently to saturate the pot watering in the chemistry. The chemical application is done in the morning.
Nematode eggs, either SCN or RKN, are added to distilled water to create a concentration of 1000 vermiform eggs […]. At least four hours after chemical treatment the eggs are applied to the treated pots plus non-treated check plants. A small hole about 1 cm deep is punched into the pot surface. One milliliter of the nematode egg slurry is pipetted into the hole. Immediately afterwards the hole is gently covered. Watering of the test plants is then restricted to only water as needed to prevent wilt for a period of 24 hours. After the 24 hour restricted watering, normal sub-irrigation watering is done for the duration of the test.

[8] = tested on: Meloidogyne incognita; assay: Summer field evaluation of pre-plant incorporated compounds on squash; format: in vivo
Procedure: Test plots of 33 cm diameter holes were bored 41 cm deep into clay soil and filled with a mixture of 80% sand and 20% silt loam soil. Technical compound for each treatment was dissolved in 50 ml acetone containing 250 ul of Triton X-100 surfactant. This solution was added to 450 ml water and poured onto 95 liters of sand/soil mixture in a rotating drum mixer. While continuing to rotate the mixing drum 66 grams of chopped, galled, tomato roots was added and thoroughly distributed. The treated soil was sufficient to fill the top 15 cm of each of the 6 replicate plots, thus simulating a PPI treatment. The plots were then watered lightly and a mixture of M. incognita eggs and larvae were injected 5 cm deep at 5 points within the plot (100 k eggs/larvae in 10 ml per plot). Three-week old squash (cv. Liberator III) with 1 fully expanded true leaf was planted 4 days after soil treatment, one per plot.

Compound: CS/C(C)=N\OC(=O)N(C)SN(C)C(=O)O/N=C(\C)SC [Thiodicarb]
- percent cyst reduction relative to control blank treatment ([1]; 0.375 mg al/gram seed): 6^a percent
- percent cyst reduction relative to control blank treatment ([1]; 1.5 mg al/gram seed): −23^a percent

Compound: CNC(=O)O/N=C/C(C)(C)SC [aldicarb]
- oral LD50 in mice [2]: 0.3 mg/kg

Compound: c1ccc(-c2cnc(-c3cccs3)o2)cc1 [compound 4417]
- 8 ppm gall ratings [3]: 0.33
- Number of nematodes recovered from treated soil after 3 days incubation with the compound ([4]; 2 kg/ha): 24
- Number of nematodes recovered from treated soil after 3 days incubation with the compound ([4]; 4 kg/ha): 13
- Number of nematodes recovered from treated soil after 3 days incubation with the compound ([4]; 10 kg/ha): 7
- mortality, signs of gross toxicity and behavioral changes [5]: One animal died within four days
- RG28 = % root galls at 28 days after treatment [6]: 25.5%
- RG43 = % root galls at 43 days after treatment [6]: 38.2%
- root weights (in words) ([6]; 2 kg/ha, 28 DAT): not affected
- top weights (in words) ([6]; 2 kg/ha, 28 DAT): reduction in top weights
- Leaf diameter of the first true leaves ([6]; 2 kg/ha, five days after treatment (5 DAT)): slight reduction
- phytotoxicity on squash seedlings ([6]; 2 kg/ha, two days after treatment): slight phytotoxicity

Compound: Clc1ccc(-c2nnc(-c3cccs3)o2)cc1 [compound 4559]
- 1 ppm gall ratings ([3]; Table 1B test a): 1^a (1=6-20%)
- 8 ppm gall ratings [3]: 0 (0=0-5%)
- Number of nematodes recovered from treated soil after 3 days incubation with the compound ([4]; 2 kg/ha): 39
- Number of nematodes recovered from treated soil after 3 days incubation with the compound ([4]; 4 kg/ha): 47
- Number of nematodes recovered from treated soil after 3 days incubation with the compound ([4]; 10 kg/ha): 33
- RG28 = % root galls at 28 days after treatment [6]: 34.2%
- RG43 = % root galls at 43 days after treatment [6]: 24.0%
- control of root galling compared with oxamyl at an equivalent rate ([6]; 2 kg/ha, 43 day time point): significantly better than oxamyl

Compound: Clc1ccc(-c2nsc(-c3ccco3)n2)c(Cl)c1 [compound 5960]
- 1 ppm gall ratings ([3]; Table 1B test e): 0.33^e
- percent control (galling reduction) relative to the control blank treatment ([7]; 0.05 kg/ha): — — 75^c percent
- percent control (galling reduction) relative to the control blank treatment ([7]; 0.1 kg/ha): — — 75^c percent
- percent control (galling reduction) relative to the control blank treatment ([7]; 0.25 kg/ha): — — 76^c percent
- mortality, signs of gross toxicity and behavioral changes [5]: all animals survived, gained body weight, and appeared active and healthy
- 0-3 vigor 16 DAP ([8]; 4 kg (kg/ha) PPI, squash): 3.0
- 0-3 vigor 21 DAP ([8]; 4 kg (kg/ha) PPI, squash): 3.0
- feeder root (3 = ave) 31 DAP ([8]; 4 kg (kg/ha) PPI, squash): 3.3
- gall % 31 DAP ([8]; 4 kg (kg/ha) PPI, squash): 24%
- root wgt (g) 31 DAP ([8]; 4 kg (kg/ha) PPI, squash): 32.6 g
- top wgt (lbs) 31 DAP ([8]; 4 kg (kg/ha) PPI, squash): 1.58 lbs
- total fruit (lbs) ([8]; 4 kg (kg/ha) PPI, squash): 1.61 lbs
- control of M. incognita (in words) ([8]; PPI application at 4 kg/ha): significant control
